The values that follow come from patent publication US11685912B2, “Affinity purification of glycosidase-cleaving enzymes” (TAKEDA PHARMACEUTICAL COMPANY LIMITED, priority 2018, dated 2023).

Test [1] addresses T1, α-Gal A (Homo sapiens, UniProt P06280).
T1 sequence (P06280 32-429): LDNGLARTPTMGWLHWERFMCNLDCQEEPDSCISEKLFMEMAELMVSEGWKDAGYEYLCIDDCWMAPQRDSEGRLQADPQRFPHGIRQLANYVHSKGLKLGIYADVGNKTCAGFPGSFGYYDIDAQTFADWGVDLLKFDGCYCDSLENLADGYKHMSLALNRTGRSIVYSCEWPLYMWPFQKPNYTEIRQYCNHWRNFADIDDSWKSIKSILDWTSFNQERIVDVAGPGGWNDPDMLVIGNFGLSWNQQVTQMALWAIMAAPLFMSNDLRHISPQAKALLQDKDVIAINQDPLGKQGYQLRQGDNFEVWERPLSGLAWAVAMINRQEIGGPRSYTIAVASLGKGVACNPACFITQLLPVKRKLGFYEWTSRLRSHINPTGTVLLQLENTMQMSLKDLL
The conditions noted are these: 10 mM Tris vs 0 mM Tris. As for the experimental part: FIG. 1 depicts Thermal Stability curves of α-Gal A at 0 mM (blue) and 10 mM (red) Tris buffer.

For test [2], the target named is T1, α-Gal A. As to conditions: buffer comprising Tris at 150 mM.

Take `NC(CO)(CO)CO` [Tris, tris(hydroxymethyl)aminomethane]: the “α-Gal A thermal stability increase” value on α-Gal A [1] stood at 3 °C. Moreover, the “elution of α-Gal A from the affinity resin” value on α-Gal A [2] is reported as “effectively eluted”.
